According to patent US11534412B2, “Application of totarol and pharmaceutical composition containing totarol” (Emergopharm SP. Z O.O. SP.K., priority 2017, dated 2022):

System: Lactobacillus gasseri - clinical strain
Test: Determination of the MIC value of totarol, broth dilution in 96-well plates with OD and quantitative culture
Format: cell-based
Details: for OD, average of 3 measurements / OD: 620 nm
Description: Test of antibacterial activity of totarol using DMI (dimethylisosorbide) as a solvent.
A suspension of 0.5 McF in physiological saline (suspension density 10^8 cfu/ml) was prepared from a 24-hour culture of a standard strain. 1 ml of the suspension was collected to 9 ml of a TSB broth ([…]). Suspensions with a dilution of 10^−6 were prepared in the described way. A suspension with a cell density of 10^5 cfu/ml was selected for further investigations. For each strain, 2 96-well plates were prepared: the first one was intended for the OD measurement, the second one—for quantitative culture on solid media. • A/ to wells B1-D1, B2-D2 and B-D 4-11, 100 µl of the broth were added; • B/ to wells B3-D3, 200 µl of the broth were added; • C/ to wells B1-D1, 1 µl of stock I was added; • D/ to wells B2-D2, 1 µl of stock II was added; • E/ to wells B3-D3, 2 µl of stock III were added. Using a multichannel pipette, 100 µl of the sample were collected from each of the B3-D3 wells and placed in wells B4-D4 (mixing by sucking the content in and letting it out for 5 times). The pipette tips were replaced and 100 µl of the content were collected from of the B4-D4 wells, and placed in wells B5-D5, mixing as previously. These operations were repeated through the wells B11-D11. The content in the B11-D11 wells was mixed, and 100 µl of the fluid were collected and discarded. This way, a series of dilutions of totarol samples in DMI in the range of 0.32% to 0.0004% was obtained. Then, 100 µl of a corresponding bacterial culture were added to the wells B, C, D 1-11. In consequence, a change in the final concentration range occurred, to 0.16%-0.0002%. Control Preparation: • Negative control: 100 µl of the broth+1 pl DMI were added to the Al well. • Positive control (I): 100 µl of the broth with the bacterial culture were added to the wells E1-G1. • Diluent positive control (II): 100 µl of the broth with the bacterial culture+1 pl DMI were added to the wells E2-G2. The OD value in the individual wells was read at the wavelength of 620 nm (read time 0). From the second 96-well plate, a culture was inoculated by a quantitative method from every dilution onto a well with a proper solid medium, and incubated for 24 h at 37° C. under aerobic or anaerobic conditions, depending on the strain. The plates were incubated under aerobic conditions or in an atmosphere of an elevated CO2 concentration (for the strains requiring it) in an incubator at 37° C. The OD was read after 8 h, 16 h, and 24 h, respectively. Before every OD measurement, the contents of the wells were mixed delicately. In parallel to the OD readout, cultures we inoculated from the second 96-well plate, from every dilution, into plates with a proper solid medium, and incubated for 24 h at 37° C., under aerobic or anaerobic conditions. For the analysis of the experimental results, an average value of the OD measurement obtained from three repetitions in the individual times (0, 8, 16, and 24 h) for the individual microbes (Gardnerella vaginalis, Streptococcus agalactiae, Enterococcus faecalis, Lactobacillus gasseri/plantarum) was taken. Additionally, the number of bacteria grown on solid media was taken into account. The results of the tests confirm the specific, concentration-dependent selectiveness, and the high antibacterial effectiveness of totarol against the pathogenic microorganisms: Gardnerella vaginalis, Streptococcus agalactiae, Enterococcus faecalis at low MIC values safe for bacteria of the Lactobacillus genus.

MIC value (L. gasseri): 0.04%
SMILES: CC(C)c1c(O)ccc2c1CC[C@H]1C(C)(C)CCC[C@]21C [Totarol, totarol]
Inoculation cfu/ml (totarol 0.0002%, 0 h): 3.1 × 10^5 cfu/ml | OD, average of 3 measurements (totarol 0.0002%, 0 h): 0.299 | Inoculation cfu/ml (totarol 0.0002%, 8 h): 2.1 × 10^5 cfu/ml | OD, average of 3 measurements (totarol 0.0002%, 8 h): 0.302 | Inoculation cfu/ml (totarol 0.0002%, 16 h): 5.9 × 10^6 cfu/ml | OD, average of 3 measurements (totarol 0.0002%, 16 h): 0.897 | Inoculation cfu/ml (totarol 0.0002%, 24 h): 2.9 × 10^7 cfu/ml | OD (totarol 0.0002%, 24 h): 1.492 | Inoculation cfu/ml (totarol 0.0004%, 0 h): 5.1 × 10^5 cfu/ml | OD, average of 3 measurements (totarol 0.0004%, 0 h): 0.296 | Inoculation cfu/ml (totarol 0.0004%, 8 h): 2.1 × 10^5 cfu/ml | OD, average of 3 measurements (totarol 0.0004%, 8 h): 0.306 | Inoculation cfu/ml (totarol 0.0004%, 16 h): 3.9 × 10^6 cfu/ml | OD, average of 3 measurements (totarol 0.0004%, 16 h): 0.915 | Inoculation cfu/ml (totarol 0.0004%, 24 h): 3.2 × 10^7 cfu/ml | OD (totarol 0.0004%, 24 h): 1.484 | Inoculation cfu/ml (totarol 0.0007%, 0 h): 1.7 × 10^5 cfu/ml | OD, average of 3 measurements (totarol 0.0007%, 0 h): 0.289 | Inoculation cfu/ml (totarol 0.0007%, 8 h): 1.9 × 10^5 cfu/ml | OD, average of 3 measurements (totarol 0.0007%, 8 h): 0.299 | Inoculation cfu/ml (totarol 0.0007%, 16 h): 3.6 × 10^6 cfu/ml | OD, average of 3 measurements (totarol 0.0007%, 16 h): 0.879 | Inoculation cfu/ml (totarol 0.0007%, 24 h): 3 × 10^7 cfu/ml | OD (totarol 0.0007%, 24 h): 1.458 | Inoculation cfu/ml (totarol 0.0013%, 0 h): 3.8 × 10^5 cfu/ml | OD, average of 3 measurements (totarol 0.0013%, 0 h): 0.298 | Inoculation cfu/ml (totarol 0.0013%, 8 h): 1.8 × 10^5 cfu/ml | OD, average of 3 measurements (totarol 0.0013%, 8 h): 0.301 | Inoculation cfu/ml (totarol 0.0013%, 16 h): 4.1 × 10^6 cfu/ml | OD, average of 3 measurements (totarol 0.0013%, 16 h): 0.879 | Inoculation cfu/ml (totarol 0.0013%, 24 h): 2.1 × 10^7 cfu/ml | OD (totarol 0.0013%, 24 h): 1.457 | Inoculation cfu/ml (totarol 0.0025%, 0 h): 4.5 × 10^5 cfu/ml | OD, average of 3 measurements (totarol 0.0025%, 0 h): 0.285 | Inoculation cfu/ml (totarol 0.0025%, 8 h): 1.5 × 10^5 cfu/ml | OD, average of 3 measurements (totarol 0.0025%, 8 h): 0.302 | Inoculation cfu/ml (totarol 0.0025%, 16 h): 2.3 × 10^6 cfu/ml | OD, average of 3 measurements (totarol 0.0025%, 16 h): 0.880 | Inoculation cfu/ml (totarol 0.0025%, 24 h): 2.3 × 10^7 cfu/ml | OD (totarol 0.0025%, 24 h): 1.459 | Inoculation cfu/ml (totarol 0.005%, 0 h): 1.2 × 10^5 cfu/ml | OD, average of 3 measurements (totarol 0.005%, 0 h): 0.292 | Inoculation cfu/ml (totarol 0.005%, 8 h): 2 × 10^5 cfu/ml | OD, average of 3 measurements (totarol 0.005%, 8 h): 0.300 | Inoculation cfu/ml (totarol 0.005%, 16 h): 9.1 × 10^6 cfu/ml | OD, average of 3 measurements (totarol 0.005%, 16 h): 0.843 | Inoculation cfu/ml (totarol 0.005%, 24 h): 2.1 × 10^7 cfu/ml | OD (totarol 0.005%, 24 h): 1.387 | Inoculation cfu/ml (totarol 0.01%, 0 h): 3.9 × 10^5 cfu/ml | OD, average of 3 measurements (totarol 0.01%, 0 h): 0.301 | Inoculation cfu/ml (totarol 0.01%, 8 h): 7 × 10^4 cfu/ml | OD, average of 3 measurements (totarol 0.01%, 8 h): 0.297 | Inoculation cfu/ml (totarol 0.01%, 16 h): 5.3 × 10^6 cfu/ml | OD, average of 3 measurements (totarol 0.01%, 16 h): 0.799 | Inoculation cfu/ml (totarol 0.01%, 24 h): 1.3 × 10^7 cfu/ml | OD (totarol 0.01%, 24 h): 1.301 | Inoculation cfu/ml (totarol 0.02%, 0 h): 1.4 × 10^5 cfu/ml | OD, average of 3 measurements (totarol 0.02%, 0 h): 0.305 | Inoculation cfu/ml (totarol 0.02%, 8 h): 1.4 × 10^5 cfu/ml | OD, average of 3 measurements (totarol 0.02%, 8 h): 0.299 | Inoculation cfu/ml (totarol 0.02%, 16 h): 2.1 × 10^5 cfu/ml | OD, average of 3 measurements (totarol 0.02%, 16 h): 0.753 | Inoculation cfu/ml (totarol 0.02%, 24 h): 1 × 10^5 cfu/ml | OD (totarol 0.02%, 24 h): 1.208 | Inoculation cfu/ml (totarol 0.04%, 0 h): 4.6 × 10^5 cfu/ml | OD, average of 3 measurements (totarol 0.04%, 0 h): 0.352 | Inoculation cfu/ml (totarol 0.04%, 8 h): 6 × 10^4 cfu/ml | OD, average of 3 measurements (totarol 0.04%, 8 h): 0.335 | Inoculation cfu/ml (totarol 0.04%, 16 h): 4.5 × 10^3 cfu/ml | OD, average of 3 measurements (totarol 0.04%, 16 h): 0.342 | Inoculation cfu/ml (totarol 0.04%, 24 h): 5 × 10^3 cfu/ml | OD (totarol 0.04%, 24 h): 0.349 | Inoculation cfu/ml (totarol 0.08%, 0 h): 2.9 × 10^5 cfu/ml | OD, average of 3 measurements (totarol 0.08%, 0 h): 0.526 | Inoculation cfu/ml (totarol 0.08%, 8 h): 1 × 10^4 cfu/ml | OD, average of 3 measurements (totarol 0.08%, 8 h): 0.409 | Inoculation cfu/ml (totarol 0.08%, 16 h): 1.9 × 10^2 cfu/ml | OD, average of 3 measurements (totarol 0.08%, 16 h): 0.463 | Inoculation cfu/ml (totarol 0.08%, 24 h): 1.2 × 10^2 cfu/ml | OD (totarol 0.08%, 24 h): 0.472 | Inoculation cfu/ml (totarol 0.16%, 0 h): 6.5 × 10^5 cfu/ml | OD, average of 3 measurements (totarol 0.16%, 0 h): 0.427 | Inoculation cfu/ml (totarol 0.16%, 8 h): 2.5 × 10^4 cfu/ml | OD, average of 3 measurements (totarol 0.16%, 8 h): 0.411 | Inoculation cfu/ml (totarol 0.16%, 16 h): 3.1 × 10^1 cfu/ml | OD, average of 3 measurements (totarol 0.16%, 16 h): 0.409 | Inoculation cfu/ml (totarol 0.16%, 24 h): 1 × 10^1 cfu/ml | OD (totarol 0.16%, 24 h): 0.406
